Tests used:
Assay type in all cases: in vivo
[1] = test system: corn (Zea mays); assay: Test G Post-Emergence Protocol; conditions: Zea mays, post-emergence, 312 h, read-out: Corn damage rating; for plant injury at 15.625 g/ha: 15.625 g ai/ha, evaluated after 13 days (100=total damage to plant; 0=no damage to plant); for plant injury at 62.5 g/ha: 62.5 g ai/ha; for plant injury at 62.5 g/ha / plant injury at 250 g/ha: evaluated after 13 days, 100=total damage to plant, 0=no damage to plant; for plant injury at 250 g/ha: 250 g ai/ha
How it was run: (§1)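 Scores run 0 (no damage) to 100 (total damage) and were taken 13 days after spraying. Plants had been raised in pots for 8 days under glasshouse control (24/16 °C, 14 h photoperiod, 65% humidity) and then treated at 15.625, 62.5 or 250 g/ha.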

[2] = test system: ivy-leaved morning glory (Ipomoea hederacea); assay: Test G Post-Emergence Protocol; conditions: Ipomoea, post-emergence, 312 h, read-out: Morningglory, Ivy-leaved damage rating; for pest or weed control at 15.625 g/ha: 15.625 g ai/ha, evaluated after 13 days (100=total damage to plant; 0=no damage to plant); for pest or weed control at 62.5 g/ha: 62.5 g ai/ha; for pest or weed control at 62.5 g/ha / pest or weed control at 250 g/ha: evaluated after 13 days, 100=total damage to plant, 0=no damage to plant; for pest or weed control at 250 g/ha: 250 g ai/ha
How it was run: as §1

[3] = test system: velvetleaf (Abutilon theophrasti); assay: Test G Post-Emergence Protocol; conditions: Abutilon theophrasti, post-emergence, 312 h, read-out: Velvetleaf damage rating; for pest or weed control at 15.625 g/ha: 15.625 g ai/ha, evaluated after 13 days (100=total damage to plant; 0=no damage to plant); for pest or weed control at 62.5 g/ha: 62.5 g ai/ha; for pest or weed control at 62.5 g/ha / pest or weed control at 250 g/ha: evaluated after 13 days, 100=total damage to plant, 0=no damage to plant; for pest or weed control at 250 g/ha: 250 g ai/ha
How it was run: as §1

[4] = test system: giant foxtail (Setaria faberi); assay: Test G Post-Emergence Protocol; conditions: Setaria faberi, post-emergence, 312 h, read-out: Foxtail, Giant damage rating; for pest or weed control at 15.625 g/ha: 15.625 g ai/ha, evaluated after 13 days (100=total damage to plant; 0=no damage to plant); for pest or weed control at 62.5 g/ha: 62.5 g ai/ha; for pest or weed control at 62.5 g/ha / pest or weed control at 250 g/ha: evaluated after 13 days, 100=total damage to plant, 0=no damage to plant; for pest or weed control at 250 g/ha: 250 g ai/ha
How it was run: as §1

[5] = test system: barnyardgrass (Echinochloa crus-galli); assay: Test G Post-Emergence Protocol; conditions: Echinochloa crus-galli, post-emergence, 312 h, read-out: Barnyardgrass damage rating; for pest or weed control at 15.625 g/ha: 15.625 g ai/ha, evaluated after 13 days (100=total damage to plant; 0=no damage to plant); for pest or weed control at 62.5 g/ha: 62.5 g ai/ha; for pest or weed control at 62.5 g/ha / pest or weed control at 250 g/ha: evaluated after 13 days, 100=total damage to plant, 0=no damage to plant; for pest or weed control at 250 g/ha: 250 g ai/ha
How it was run: as §1

[6] = test system: redroot pigweed (Amaranthus retroflexus); assay: Test G Post-Emergence Protocol; conditions: Amaranthus retroflexus, post-emergence, 312 h, read-out: Pigweed, Redroot damage rating; for pest or weed control at 15.625 g/ha: 15.625 g ai/ha, evaluated after 13 days (100=total damage to plant; 0=no damage to plant); for pest or weed control at 62.5 g/ha: 62.5 g ai/ha; for pest or weed control at 62.5 g/ha / pest or weed control at 250 g/ha: evaluated after 13 days, 100=total damage to plant, 0=no damage to plant; for pest or weed control at 250 g/ha: 250 g ai/ha
How it was run: as §1

[7] = test system: corn (Zea mays); assay: Test G Pre-Emergence Protocol; conditions: Zea mays, pre-emergence, 312 h, evaluated after 13 days; for plant injury at 15.625 g/ha: 15.625 g ai/ha; for plant injury at 15.625 g/ha / plant injury at 250 g/ha: read-out: Corn damage rating (100=total damage to plant; 0=no damage to plant); for plant injury at 62.5 g/ha: 62.5 g ai/ha, 100=total damage to plant, 0=no damage to plant, read-out: Corn damage rating; for plant injury at 250 g/ha: 250 g ai/ha
How it was run: (§2)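 One day after sowing, pots are treated with a spray of test compound formulated in acetone/water 50:50 plus 0.5% Tween 20, giving 15.625, 62.5 or 250 g/ha. Evaluation on a 0–100 damage scale follows 13 days of glasshouse growth.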

[8] = test system: ivy-leaved morning glory (Ipomoea hederacea); assay: Test G Pre-Emergence Protocol; conditions: Ipomoea, pre-emergence, 312 h, evaluated after 13 days; for pest or weed control at 15.625 g/ha: 15.625 g ai/ha; for pest or weed control at 62.5 g/ha: 62.5 g ai/ha, 100=total damage to plant, 0=no damage to plant, read-out: Morningglory, Ivy-leaved damage rating
How it was run: as §2

[9] = test system: velvetleaf (Abutilon theophrasti); assay: Test G Pre-Emergence Protocol; conditions: Abutilon theophrasti, pre-emergence, 312 h, evaluated after 13 days; for pest or weed control at 15.625 g/ha: 15.625 g ai/ha; for pest or weed control at 15.625 g/ha / pest or weed control at 250 g/ha: read-out: Velvetleaf damage rating (100=total damage to plant; 0=no damage to plant); for pest or weed control at 62.5 g/ha: 62.5 g ai/ha, 100=total damage to plant, 0=no damage to plant, read-out: Velvetleaf damage rating; for pest or weed control at 250 g/ha: 250 g ai/ha
How it was run: as §2

[10] = test system: giant foxtail (Setaria faberi); assay: Test G Pre-Emergence Protocol; conditions: Setaria faberi, pre-emergence, 312 h, evaluated after 13 days; for pest or weed control at 15.625 g/ha: 15.625 g ai/ha; for pest or weed control at 15.625 g/ha / pest or weed control at 250 g/ha: read-out: Foxtail, Giant damage rating (100=total damage to plant; 0=no damage to plant); for pest or weed control at 62.5 g/ha: 62.5 g ai/ha, 100=total damage to plant, 0=no damage to plant, read-out: Foxtail, Giant damage rating; for pest or weed control at 250 g/ha: 250 g ai/ha
How it was run: as §2

[11] = test system: barnyardgrass (Echinochloa crus-galli); assay: Test G Pre-Emergence Protocol; conditions: Echinochloa crus-galli, pre-emergence, 312 h, evaluated after 13 days; for pest or weed control at 15.625 g/ha: 15.625 g ai/ha; for pest or weed control at 15.625 g/ha / pest or weed control at 250 g/ha: read-out: Barnyardgrass damage rating (100=total damage to plant; 0=no damage to plant); for pest or weed control at 62.5 g/ha: 62.5 g ai/ha, 100=total damage to plant, 0=no damage to plant, read-out: Barnyardgrass damage rating; for pest or weed control at 250 g/ha: 250 g ai/ha
How it was run: as §2

[12] = test system: redroot pigweed (Amaranthus retroflexus); assay: Test G Pre-Emergence Protocol; conditions: Amaranthus retroflexus, pre-emergence, 312 h, evaluated after 13 days; for pest or weed control at 15.625 g/ha: 15.625 g ai/ha; for pest or weed control at 15.625 g/ha / pest or weed control at 250 g/ha: read-out: Pigweed, Redroot damage rating (100=total damage to plant; 0=no damage to plant); for pest or weed control at 62.5 g/ha: 62.5 g ai/ha, 100=total damage to plant, 0=no damage to plant, read-out: Pigweed, Redroot damage rating; for pest or weed control at 250 g/ha: 250 g ai/ha
How it was run: as §2

[13] = read-out: Morningglory, Ivy-leaved damage rating (100=total damage to plant; 0=no damage to plant)

| SMILES | plant injury at 15.625 g/ha [1] [%] | plant injury at 62.5 g/ha [1] [%] | plant injury at 250 g/ha [1] [%] | pest or weed control at 15.625 g/ha [2] [%] | pest or weed control at 62.5 g/ha [2] [%] | pest or weed control at 250 g/ha [2] [%] | pest or weed control at 15.625 g/ha [3] [%] | pest or weed control at 62.5 g/ha [3] [%] | pest or weed control at 250 g/ha [3] [%] | pest or weed control at 15.625 g/ha [4] [%] | pest or weed control at 62.5 g/ha [4] [%] | pest or weed control at 250 g/ha [4] [%] | pest or weed control at 15.625 g/ha [5] [%] | pest or weed control at 62.5 g/ha [5] [%] | pest or weed control at 250 g/ha [5] [%] | pest or weed control at 15.625 g/ha [6] [%] | pest or weed control at 62.5 g/ha [6] [%] | pest or weed control at 250 g/ha [6] [%] | plant injury at 15.625 g/ha [7] [%] | plant injury at 62.5 g/ha [7] [%] | also measured |
| --- | --- | --- | --- | --- | --- | --- | --- | --- | --- | --- | --- | --- | --- | --- | --- | --- | --- | --- | --- | --- | --- |
| CN1C[C@@H](c2ccc(C(F)(F)F)cc2)[C@H](C(=O)Nc2ccc(F)nn2)C1=O (racemic) [Compound 1655] | 0 | 0 | 0 | 0 | 0 | 0 | 0 | 0 | 0 | 0 | 30 | 30 | 0 | 20 | 20 | 0 | 0 | 40 | 0 | 0 | plant injury at 250 g/ha [7]: 0%; pest or weed control at 15.625 g/ha [8, 13]: 0%; pest or weed control at 62.5 g/ha [8]: 0%; pest or weed control at 250 g/ha ([8]; 250 g ai/ha, read-out: Morningglory, Ivy-leaved damage rating (100=total damage to plant; 0=no damage to plant)): 0%; pest or weed control at 15.625 g/ha [9]: 0%; pest or weed control at 62.5 g/ha [9]: 0%; pest or weed control at 250 g/ha [9]: 0%; pest or weed control at 15.625 g/ha [10]: 0%; pest or weed control at 62.5 g/ha [10]: 0%; pest or weed control at 250 g/ha [10]: 30%; pest or weed control at 15.625 g/ha [11]: 0%; pest or weed control at 62.5 g/ha [11]: 0%; pest or weed control at 250 g/ha [11]: 0%; pest or weed control at 15.625 g/ha [12]: 0%; pest or weed control at 62.5 g/ha [12]: 0%; pest or weed control at 250 g/ha [12]: 0% |
| CN1C[C@H](c2cc(C(C)(C)C)ncn2)[C@@H](C(=O)Nc2ccc(F)c(F)c2F)C1=O (racemic) [Compound 1668] | 0 | 0 | 0 | 0 | 0 | 0 | 0 | 0 | 0 | 0 | 0 | 10 | 0 | 0 | 0 | 0 | 0 | 0 | 0 | 0 | plant injury at 250 g/ha [7]: 0%; pest or weed control at 15.625 g/ha [8, 13]: 0%; pest or weed control at 62.5 g/ha [8]: 0%; pest or weed control at 15.625 g/ha [9]: 0%; pest or weed control at 62.5 g/ha [9]: 0%; pest or weed control at 250 g/ha [9]: 0%; pest or weed control at 15.625 g/ha [10]: 0%; pest or weed control at 62.5 g/ha [10]: 0%; pest or weed control at 250 g/ha [10]: 20%; pest or weed control at 15.625 g/ha [11]: 0%; pest or weed control at 62.5 g/ha [11]: 0%; pest or weed control at 250 g/ha [11]: 20%; pest or weed control at 15.625 g/ha [12]: 0%; pest or weed control at 62.5 g/ha [12]: 0%; pest or weed control at 250 g/ha [12]: 0% |

Source: patent US12077503B2, “Substituted cyclic amides and their use as herbicides” (FMC CORPORATION, priority 2015, dated 2024)
